For data set [1], the target named is T1, Falcipain 2 (Plasmodium falciparum, UniProt Q9N6S8).
T1 sequence (Q9N6S8 whole entry): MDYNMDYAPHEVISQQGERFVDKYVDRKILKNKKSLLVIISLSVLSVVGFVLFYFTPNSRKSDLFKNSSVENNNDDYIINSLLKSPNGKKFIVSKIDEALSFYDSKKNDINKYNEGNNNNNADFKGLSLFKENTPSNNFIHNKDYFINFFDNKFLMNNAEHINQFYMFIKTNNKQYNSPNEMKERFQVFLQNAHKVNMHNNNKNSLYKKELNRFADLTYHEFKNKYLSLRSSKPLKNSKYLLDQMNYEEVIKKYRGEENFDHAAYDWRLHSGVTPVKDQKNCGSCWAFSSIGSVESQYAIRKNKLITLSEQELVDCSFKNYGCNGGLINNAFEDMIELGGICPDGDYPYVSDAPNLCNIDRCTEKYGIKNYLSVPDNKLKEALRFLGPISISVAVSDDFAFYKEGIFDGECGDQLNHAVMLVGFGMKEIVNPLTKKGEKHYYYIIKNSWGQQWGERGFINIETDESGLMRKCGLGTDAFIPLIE
The data set can be described thus: Inhibition of Plasmodium falciparum recombinant His-tagged falcipain-2 expressed in Escherichia coli assessed as inhibition constant using Cbz-Phe-Arg-AMC as substrate by fluorescence spectrophotometer assay.

Data set [2] concerns Plasmodium falciparum. Briefly: Antiplasmodial activity against chloroquine sensitive Plasmodium falciparum 3D7 assessed as inhibition of parasite growth incubated for 48 hrs by Malstat reagent based spectrophotometric. The note with it: 3D7, 48 h. Format: functional, organism-based.
Data set [3] concerns Plasmodium falciparum. The data set can be described thus: Antimalarial activity against Plasmodium falciparum 3D7 assessed as reduction of parasite growth at 25 uM incubated for 96 hrs by SYBR green I dye based fluorescence assay relative to control. Set-up: scale not given: the % may be the effect or the level left. Type of data set: functional.
The subject of data set [4] is Plasmodium falciparum. The data set can be described thus: Antiplasmodial activity against chloroquine resistant Plasmodium falciparum K14 assessed as inhibition of parasite growth incubated for 42 hrs by [3H]-hypoxanthine incorporation based microbeta scintillation counting method. Format: functional, organism-based.
Data set [5] deals with Plasmodium falciparum. Briefly: Antimalarial activity against Plasmodium falciparum 3D7 assessed as inhibition of parasite growth by measuring minimum inhibitory concentration by microassay. Format: functional.
Data set [6] has as its system Plasmodium falciparum. Briefly: Antimalarial activity against chloroquine resistant Plasmodium falciparum assessed as inhibition of parasite growth. Format: functional, organism-based.
In data set [7] the test system is Plasmodium falciparum. The data set can be described thus: Antiplasmodial activity against chloroquine resistant Plasmodium falciparum K14 assessed as inhibition of parasite growth incubated for 48 hrs by [3H]-hypoxanthine incorporation based microbeta scintillation counting method. Format: functional, organism-based.
Data set [8] concerns Plasmodium falciparum. Briefly: Antiplasmodial activity against Plasmodium falciparum 3D7 assessed as inhibition of parasite growth incubated for 72 hrs by LDH assay based spectrofluorometric analysis. Format: functional, organism-based. The following applies: 3D7, 72 h.
Data set [9] is described as follows: Selectivity index, ratio of CC50 for cytotoxicity against human HepG2 cells by MTT assay to EC50 for antiplasmodial activity against erythrocytic stage of Plasmodium falciparum 3D7 by SYBR Green dye based fluorescence assay. Format: toxicity, cell-based. The following applies: read-out: Ratio CC50/EC50. Background: Tetrazolium assays rely on reduction of a dye to a coloured formazan, in cell work by metabolically active cells.

Data set [10] has as its system Plasmodium falciparum. Briefly: Antiplasmodial activity against erythrocytic stage of Plasmodium falciparum NF54 assessed as reduction of parasite growth incubated for 48 hrs by [3H]-hypoxanthine incorporation based beta-plate liquid scintillation counting method. Type of data set: functional, organism-based.
For data set [11], the system named is Plasmodium falciparum. The data set can be described thus: Antiplasmodial activity against erythrocytic stage of Plasmodium falciparum K1 assessed as reduction of parasite growth incubated for 48 hrs by [3H]-hypoxanthine incorporation based beta-plate liquid scintillation counting method. Type of data set: functional, organism-based.
Data set [12] is described as follows: Selectivity index, ratio of CC50 for cytotoxicity against human HepG2 cells by MTT assay to EC50 for antiplasmodial activity against erythrocytic stage of Plasmodium falciparum K1 by [3H]-hypoxanthine incorporation based liquid scintillation counting method. Format: toxicity, cell-based. The following applies: read-out: Ratio CC50/EC50.
The nature of data set [13]: Selectivity index, ratio of CC50 for cytotoxicity against human HepG2 cells by MTT assay to EC50 for antiplasmodial activity against erythrocytic stage of Plasmodium falciparum NF54 by [3H]-hypoxanthine incorporation based liquid scintillation counting method. Type of data set: toxicity, cell-based. The note with it: read-out: Ratio CC50/EC50.
The nature of data set [14]: Cytotoxicity against human HepG2 cells assessed as reduction in cell viability incubated for 72 hrs by MTT assay. Type of data set: toxicity, cell-based.
The subject of data set [15] is Plasmodium falciparum. The data set can be described thus: Antiplasmodial activity against erythrocytic stage of Plasmodium falciparum 3D7 assessed as reduction of parasite growth incubated for 100 hrs by SYBR Green dye based fluorescence assay. Type of data set: functional, organism-based. The note with it: 3D7, 100 h.
The subject of data set [16] is Plasmodium falciparum. The data set can be described thus: Antiplasmodial activity against chloroquine resistant Plasmodium falciparum RKL-2 assessed as inhibition of parasite growth incubated for 36 to 40 hrs by Giemsa staining based microscopic analysis. Type of data set: functional, organism-based.
In data set [17] the test system is Plasmodium falciparum. Briefly: Antimalarial activity against Plasmodium falciparum 3D7 assessed as reduction of parasite growth incubated for 96 hrs by SYBR green I dye based fluorescence assay. Type of data set: functional, organism-based. The following applies: 3D7, 96 h.

Values after ≈ are worked out from the molar mass of the structure shown.

This note sets out measurements from ChEMBL document CHEMBL5352391, “New structural classes of antimalarials” (Eur J Med Chem, 2022).

Broadly, the Ki is a measure of affinity in units of concentration, obtained from inhibition or displacement. Turning to `N=C(NC(=O)OCc1ccccc1)NC(=O)c1ccc(C(=O)OCc2ccccc2)o1`, the Ki in [1] was determined as 2.69 µM.
In general, IC50 refers to the point on the concentration scale where inhibition reaches its midpoint. For `CC(=O)Nc1cc(-c2ccc(F)cc2)cc2c(C(=O)C(F)(F)F)c(-c3ccc(F)cc3)[nH]c12`, the IC50 in data set [2] turned out to be 2.52 µM.
`COC(=O)[C@H](Cc1ccc(O)c(-c2ccc(Cl)cc2)c1)NC(=O)C(=O)c1c[nH]c2ccccc12`: the Activity in [3] is 60%.
Take `Oc1c(/C=N/c2ccccc2/N=C/c2cccc(CN3CCOCC3)c2O)cccc1CN1CCNCC1`: the concentration for half-maximal inhibition (IC50) in [4] is 2.28 µM.
In the case of `COC(=O)[C@H](Cc1ccc(O)c(-c2ccccc2)c1)NC(=O)C(=O)c1c[nH]c2ccccc12`, the Activity in data set [3] is recorded as 60%.
Same read-out and setting: to `COC(=O)[C@H](Cc1ccc(O)c(-c2ccsc2)c1)NC(=O)C(=O)c1c[nH]c2ccccc12` belongs 60%.
One may read the MIC as the lowest concentration that inhibits growth of the organism. On to `Cc1ccc(C2=C/C(=C/c3cc4cc(C)ccc4nc3Cl)C(=O)O2)c(C)c1`, for which the MIC in data set [5] was 10 µg/mL (≈ 26.6 µM).
With `Nc1cc(Cl)c(S(N)(=O)=O)cc1-c1nnc(S)n1-c1ccccc1Cl`, in [6], the half-inhibitory concentration (IC50) turned out to be 0.025 µg/mL (≈ 0.0601 µM).
In the case of `COC(=O)[C@H](Cc1ccc(O)c(-c2cccc(O)c2)c1)NC(=O)C(=O)c1c[nH]c2ccccc12`, the Activity in [3] is on record as 60%.
For `COC(=O)[C@H](Cc1ccc(O)c(-c2ccc(C(C)=O)cc2)c1)NC(=O)C(=O)c1c[nH]c2ccccc12`, the Activity in data set [3] was 60%.
As for `O=C(Nc1ccc([C@@H]2[C@H](Oc3ccc(Cl)cc3Cl)C(=O)N2c2ccc(Cl)cc2)cc1)N1CCOCC1`, the IC50 in data set [7] amounted to 26 µM.
`C/C1=C\[C@H](C)CCC(=O)/C(C)=C/[C@H](C)C[C@@H](C)CC[C@@H]([C@@H](C)C(=O)O)OC(=O)[C@@H](C)C1`: the IC50 in [8] came out at 9.81 µM.
As usually defined, the EC50 is the concentration at which the effect is half-maximal. For orientation: CC50 means the concentration at which the toxic effect on the cells reaches its halfway point. Consider `CC1(C)C2CC=C(CC(=O)Nc3ccnc4cc(Cl)ccc34)[C@@H]1C2`, for which the selectivity ratio was 0.8 in [9], 1.8 in [12] and 0.7 in data set [13]. Besides, the EC50 in data set [10] stood at 21.4 µM; in [11] it was 7.84 µM; in data set [15], 17.1 µM. The CC50 at 72 h in data set [14] was found to be 14.3 µM.
As to `CCN(Cc1cc(C2(C)OOC(c3ccccn3)OO2)ccc1O)c1ccccc1` (configuration not stated), in data set [16], the IC50 worked out at 5.3 µg/mL (≈ 13 µM).
As for `CC1(C)C2CC=C(CC(=O)Nc3ccnc4ccccc34)[C@@H]1C2`, the selectivity ratio in data set [9] was 0.2; in data set [12] it was 0.3; in data set [13], 0.2. Also, the EC50 in data set [10] came to 23.4 µM; in data set [11] it was 13.9 µM; in data set [15], 26.4 µM. In addition, the CC50 at 72 h in [14] is 3.98 µM.
Regarding `COC(=O)[C@H](Cc1ccc(O)c(C(=O)OCc2ccc(Nc3ccccc3)cc2)c1)NC(=O)C(=O)c1c[nH]c2ccccc12`, in [3], the Activity amounted to 60%.
As for `Oc1c(/C=N/c2ccc(Oc3ccc(/N=C/c4cccc(CN5CCOCC5)c4O)cc3)cc2)cccc1CN1CCOCC1`, the IC50 in data set [4] was determined as 2.28 µM.
Turning to `COC(=O)[C@H](Cc1ccc(O)c(-c2ccc(Br)cc2)c1)NC(=O)C(=O)c1c[nH]c2ccccc12`, the EC50 in data set [17] stood at 3.7 µM. Moreover, the Activity in data set [3] was 60%.
As for `CCN(Cc1cc(C2(C)OOC(c3ccco3)OO2)ccc1O)c1ccccc1` (configuration not stated), in [16], the IC50 worked out at 5.3 µg/mL (≈ 13.3 µM).
In the case of `CC(=O)Nc1cc(-c2ccc(F)cc2)cc2cc(-c3ccc(F)cc3)[nH]c12`, in data set [2], the IC50 was determined as 1.43 µM.
The same measure, in the same setting: with `COc1ccc(-c2[nH]c3c(NC(C)=O)cc(/C=C/c4ccc(F)cc4)cc3c2C(=O)C(F)(F)F)cc1` the figure was 3.39 µM.
In the case of `COc1ccc2nc(Cl)c(/C=C3/C=C(c4ccc(C)cc4C)OC3=O)cc2c1`, the MIC in data set [5] worked out at 10 µg/mL (≈ 25.5 µM).
Turning to `C/C1=C\[C@H](C)C(=O)C[C@@H](O)/C(C)=C/[C@H](C)C[C@@H](C)CC[C@@H]([C@@H](C)C(=O)O)OC(=O)[C@@H](C)C1`, the IC50 in data set [8] was 0.123 µM.
With `CC1(C)C2CC=C(CC(=O)Nc3cccc4cccnc34)[C@@H]1C2`, the selectivity ratio in [9] was over 62.3. For the same compound, the results for the EC50 in data set [10], in [11] and in [15] were over 50 µM, over 50 µM and 2.19 µM, respectively. In addition, the CC50 at 72 h in [14] is over 100 µM.
As to `C=C[C@H]1CN2CC[C@H]1C[C@H]2[C@H](O)c1ccnc2ccc(OC)cc12` [QUININE], the IC50 in [6] is 0.026 µg/mL (≈ 0.0801 µM).
